Experiments:
[1] = tested on: HEK293/ABCB5 kidney cells; test: MTT cytotoxicity assay, HEK293/ABCB5; assay type: cell-based
Protocol: (§1) Cell cultures and cytotoxicity assays have been used. Celastrol was dissolved in DMSO at a final concentration of 100 mmol/L and stored at −20° C. Cytotoxicity was assessed using the 3-(4,5-dimethylthiazol-2-yl)-2,5-diphenyltetrazolium bromide assay. 4000 cells from HEK293 and HEK293/ABCB5 kidney cancer cells or MDA-MB-231 pcDNA and MDA-MB-231/BCRP breast cancer cells were seeded on 96-well plates per well. After overnight pre-incubation, the cells were exposed to different concentrations of celastrol (0.1-10 μmol/L) for 3 days. Subsequently, 10 μL of MTT reagents were added to each well and incubated at 37° C. for 4 hours followed by the addition of 100 μL solubilization buffer (10% SDS in 0.01 mol/L HCl) and overnight incubation. Absorbance at 585 nm was determined from each well the next day. The percentage of cell viability was calculated using the following formula: Cell viability (%)=Cells number treated/Cells number DMSO control×100. Data were obtained from three independent experiments.

[2] = tested on: A2780 (Ovary) taxol sensitive cancer cells; test: MTT cytotoxicity assay, A2780 taxol sensitive; assay type: cell-based; details: Homo sapiens, A2780, 72 h, read-out: IC50 A2780 (Ovary) (Taxol sensitive)
Protocol: as §1, with “from A549 (lung), A2780 (ovary), HCT-8 (colon)” for “from HEK293”, “and MCF-7 (breast)” for “and HEK293/ABCB5 kidney cancer cells or MDA-MB-231 pcDNA and MDA-MB-231/BCRP breast”, “celastrol (0.039-100” for “celastrol (0.1-10”, “μmol/L) or taxol” for “μmol/L)”, “reagents was” for “reagents were”

[3] = tested on: HCT116 p53+/+ colon cancer cells; test: MTT cytotoxicity assay, HCT116 p53+/+; assay type: cell-based; details: Homo sapiens, HCT-116, 72 h, read-out: IC50 HCT116 p53+/+ colon cancer cells
Protocol: Cell cultures and cytotoxicity assays have been used. Celastrol was dissolved in DMSO at a final concentration of 100 mmol/L and stored at −20° C. Cytotoxicity was assessed using the 3-(4,5-dimethylthiazol-2-yl)-2,5-diphenyltetrazolium bromide assay. 4000 cells from HCT116 p53^+/+ or p53^−/− colon cancer cells and DLD-1 Bax-Bak^+/+ or Bax-Bak^−/− colon cancer cells were seeded on 96-well plates per well. […] Subsequently, 10 μL of MTT reagents were added to each well and incubated at 37° C. for 4 hours followed by the addition of 100 μL solubilization buffer (10% SDS in 0.01 mol/L HCl) and overnight incubation. […] The percentage of cell viability was calculated using the following formula: Cell viability (%)=Cells number treated/Cells number DMSO control×100. Data were obtained from three independent experiments.

[4] = tested on: CEM-ADR5000 (Leukemia) doxorubicin resistant cells; test: MTT cytotoxicity assay, CEM-ADR5000; assay type: cell-based, human
Protocol: as §1, with “MCF-7 doxorubicin sensitive/resistant breast” for “HEK293 and HEK293/ABCB5 kidney”, “CEM doxorubicin sensitive/resistant leukemia” for “MDA-MB-231 pcDNA and MDA-MB-231/BCRP breast cancer”, “(0.039-100” for “(0.1-10”, “μmol/L) or doxorubicin” for “μmol/L)”

[5] = tested on: HCT-8 (Colon) taxol sensitive cancer cells; test: MTT cytotoxicity assay, HCT-8 taxol sensitive; assay type: cell-based; details: Homo sapiens, HCT-8, 72 h, read-out: IC50 HCT-8 (Colon) (Taxol sensitive)
Protocol: as §1, with “from A549 (lung), A2780 (ovary), HCT-8 (colon)” for “from HEK293”, “and MCF-7 (breast)” for “and HEK293/ABCB5 kidney cancer cells or MDA-MB-231 pcDNA and MDA-MB-231/BCRP breast”, “celastrol (0.039-100” for “celastrol (0.1-10”, “μmol/L) or taxol” for “μmol/L)”, “reagents was” for “reagents were”

[6] = tested on: MCF-7 (Breast) taxol resistant cancer cells; test: MTT cytotoxicity assay, MCF-7 taxol resistant; assay type: cell-based, human
Protocol: as §1, with “from A549 (lung), A2780 (ovary), HCT-8 (colon)” for “from HEK293”, “and MCF-7 (breast)” for “and HEK293/ABCB5 kidney cancer cells or MDA-MB-231 pcDNA and MDA-MB-231/BCRP breast”, “celastrol (0.039-100” for “celastrol (0.1-10”, “μmol/L) or taxol” for “μmol/L)”, “reagents was” for “reagents were”

[7] = tested on: HCT-8 (Colon) taxol resistant cancer cells; test: MTT cytotoxicity assay, HCT-8 taxol resistant; assay type: cell-based, human
Protocol: as §1, with “from A549 (lung), A2780 (ovary), HCT-8 (colon)” for “from HEK293”, “and MCF-7 (breast)” for “and HEK293/ABCB5 kidney cancer cells or MDA-MB-231 pcDNA and MDA-MB-231/BCRP breast”, “celastrol (0.039-100” for “celastrol (0.1-10”, “μmol/L) or taxol” for “μmol/L)”, “reagents was” for “reagents were”

[8] = tested on: A2780 (Ovary) taxol resistant cancer cells; test: MTT cytotoxicity assay, A2780 taxol resistant; assay type: cell-based, human; details: for Resistant Factor: A2780 taxol resistant versus taxol sensitive
Protocol: as §1, with “from A549 (lung), A2780 (ovary), HCT-8 (colon)” for “from HEK293”, “and MCF-7 (breast)” for “and HEK293/ABCB5 kidney cancer cells or MDA-MB-231 pcDNA and MDA-MB-231/BCRP breast”, “celastrol (0.039-100” for “celastrol (0.1-10”, “μmol/L) or taxol” for “μmol/L)”, “reagents was” for “reagents were”

[9] = tested on: A2780 (Ovary) cisplatin resistant cancer cells; test: MTT cytotoxicity assay, A2780 cisplatin resistant; assay type: cell-based, human
Protocol: as §1, with “A2780 cisplatin sensitive/resistant ovarian” for “HEK293 and HEK293/ABCB5 kidney”, “SGC-7901 cisplatin sensitive/resistant gastric” for “MDA-MB-231 pcDNA and MDA-MB-231/BCRP breast”, “(0.039-100” for “(0.1-10”, “μmol/L) or cisplatin” for “μmol/L)”

[10] = tested on: CCRF-CEM (Leukemia) doxorubicin sensitive cells; test: MTT cytotoxicity assay, CCRF-CEM; assay type: cell-based; details: Homo sapiens, 72 h, 3 days
Protocol: as §1, with “MCF-7 doxorubicin sensitive/resistant breast” for “HEK293 and HEK293/ABCB5 kidney”, “CEM doxorubicin sensitive/resistant leukemia” for “MDA-MB-231 pcDNA and MDA-MB-231/BCRP breast cancer”, “(0.039-100” for “(0.1-10”, “μmol/L) or doxorubicin” for “μmol/L)”

Question: Which results are given for `CC1=C(O)C(=O)C=C2C1=CC=C1[C@@]2(C)CC[C@@]2(C)[C@@H]3C[C@](C)(C(=O)O)CC[C@]3(C)CC[C@]12C` [Celastrol, celastrol]?
Answer: IC50 ([1]; Homo sapiens, HEK293, 72 h, MTT, 3 days): 3.45 µM; Resistant Factor ([1]; IC50 HEK293/ABCB5 divided by IC50 HEK293): 1.12; IC50 [2]: 0.902 µM; IC50 [3]: 0.831 µM; Resistant Factor ([4]; CEM-ADR5000 versus CCRF-CEM): 0.033; IC50 ([4]; Homo sapiens, 72 h, MTT, 3 days): 0.108 µM; IC50 [5]: 0.937 µM; IC50 ([6]; Homo sapiens, MCF7, 72 h, read-out: IC50 MCF-7 (Breast) (Taxol resistant)): 0.73 µM; Resistant Factor ([6]; MCF-7 taxol resistant versus taxol sensitive): 0.65; Resistant Factor ([7]; HCT-8 taxol resistant versus taxol sensitive): 0.59; IC50 ([7]; Homo sapiens, HCT-8, 72 h, read-out: IC50 HCT-8 (Colon) (Taxol resistant)): 0.553 µM; Resistant Factor [8]: 0.60; Resistant Factor ([8]; listed as celastrol): 0.6; IC50 ([8]; Homo sapiens, A2780, 72 h, read-out: IC50 A2780 (Ovary) (Taxol resistant)): 0.54 µM; Resistant Factor ([9]; A2780 cisplatin resistant versus cisplatin sensitive): 1.03; IC50 ([9]; Homo sapiens, A2780, 72 h, read-out: IC50 A2780 (Ovary) (Cisplatin resistant)): 0.543 µM; IC50 [10]: 3.26 µM

Source: US10322097B2, “Treatment of subjects with multidrug-resistant cancer” (priority 2015, dated 2019)
